Measurements: patent US10577395B2 (priority 2014, dated 2020)
In brackets after ≈: the same amount, converted by molar mass. Like-named read-outs stand apart in the source and are kept apart here.

Key:
[1] = tested on: panel of Gram-positive bacteria (VSSA, MRSA, VanA and VanB VRE); assay: Antimicrobial assay, MIC across the bacterial panel; format: cell-based, S. aureus, E. faecalis, E. faecium; conditions: Staphylococcus aureus, read-out: MICs across the bacterial panel, vancomycin-sensitive and vancomycin-resistant strains
Procedure: (§1) Assays were carried out following the methods of Clinical and Laboratory Standards Institute; Methods for Dilution Antimicrobial Susceptibility Tests for Bacteria That Grow Aerobically; Approved Standard, […].; CLSI document M07-A8; Clinical and Laboratory Standards Institute: Wayne, Pa., 2009.
(§2) This diluted bacterial stock solution was then inoculated into a well of a V-shaped 96-well glass coated microtiter plate, supplemented with serial diluted aliquots of the antibiotic solution DMSO (4 μL), to achieve a total assay volume of 0.1 mL. The plate was then incubated at 37° C. for 18 hours, after which minimal inhibitory concentrations (MICs) were determined by monitoring the cell growth (observed as a pellet) in the wells. The lowest concentration of antibiotic (in μg/mL) capable of eliminating the cell growth in the wells is reported as the MIC.

[2] = tested on: vancomycin-resistant Enterococcus faecalis (VanA VRE, BM4166); assay: microbe, parasite or virus in culture; format: cell-based; conditions: for MIC: Enterococcus faecalis, VRE
Procedure: as §1, §2

[3] = tested on: vancomycin-resistant Enterococcus faecalis (VanB VRE, strain ATCC 51299); assay: microbe, parasite or virus in culture; format: cell-based; conditions: for MIC: Enterococcus faecalis
Procedure: as §1, §2

[4] = tested on: Enterococcus faecium (VanA VRE, ATCC BAA-2317); assay: Antimicrobial assay, MIC, VanA E. faecium; format: cell-based; conditions: for MIC: Enterococcus faecium
Procedure: as §1, §2

[5] = tested on: methicillin and oxacillin-resistant Staphylococcus aureus subsp. aureus (MRSA strain ATCC 43300); assay: Antimicrobial assay, MIC, MRSA; format: cell-based; conditions: for MIC: Staphylococcus aureus
Procedure: as §1, §2

[6] = tested on: vancomycin-sensitive Staphylococcus aureus (VSSA strain ATCC 25923); assay: Antimicrobial assay, MIC, vancomycin-sensitive S. aureus; format: cell-based; conditions: ATCC 25923; for MIC: Staphylococcus aureus
Procedure: as §1, §2

[7] = read-out: MIC, Van A E. faecalis, serum concentration 10%
[8] = read-out: MIC, Van A E. faecalis, serum concentration 25%
[9] = read-out: MIC, Van A E. faecalis, serum concentration 100%
[10] = read-out: MIC, VanA E. faecalis
[11] = read-out: MIC, Van B E. faecalis, serum concentration 10%
[12] = read-out: MIC, Van B E. faecalis, serum concentration 25%
[13] = read-out: MIC, Van B E. faecalis, serum concentration 100%
[14] = read-out: MIC, VanB E. faecalis
[15] = read-out: MIC, Van A E. faecium, serum concentration 10%
[16] = read-out: MIC, Van A E. faecium, serum concentration 25%
[17] = read-out: MIC, Van A E. faecium, serum concentration 100%
[18] = read-out: MIC, MRSA S. aureus, serum concentration 10%
[19] = read-out: MIC, MRSA S. aureus, serum concentration 25%
[20] = read-out: MIC, MRSA S. aureus, serum concentration 100%
[21] = ATCC25923, read-out: MIC, sensitive S. aureus, serum concentration 10%, 10%
[22] = ATCC25923, read-out: MIC, sensitive S. aureus, serum concentration 100%, 100%
[23] = ATCC25923, 25%, read-out: MIC, sensitive S. aureus, serum concentration 25%
[24] = ATCC25923, read-out: MIC, sensitive S. aureus

SMILES | MIC [1] | MIC [2, 7] | MIC [2, 8] | MIC [2, 9] | MIC [2, 10] | MIC [3, 11] | MIC [3, 12] | MIC [3, 13] | MIC [3, 14] | MIC [4, 15] | MIC [4, 16] | MIC [4, 17] | MIC ([4]; read-out: MIC, VanA E. faecium) | MIC ([5]; read-out: MIC, MRSA S. aureus) | MIC [5, 18] | MIC [5, 19] | MIC [5, 20] | MIC [6, 21] | MIC [6, 22] | MIC [6, 23] | further results
CN[C@H](CC(C)C)C(=O)N[C@H]1C(=O)N[C@@H](CC(N)=O)C(=O)N[C@H]2C(=S)NC3C(=O)N[C@H](C(=O)N[C@H](C(=O)O)c4cc(O)cc(O)c4-c4cc3ccc4O)[C@H](O)c3ccc(c(Cl)c3)Oc3cc2cc(c3OC2OC(CO)C(O)[C@H](O)[C@@H]2O[C@H]2CC(C)(N)[C@H](O)[C@H](C)O2)Oc2ccc(cc2Cl)[C@H]1O (stereo partly drawn) [Compound 2, [Ψ[C(═S)NH]Tpg^4]vancomycin] | > 32 µg/mL | > 32 µg/mL | > 32 µg/mL | > 32 µg/mL | > 32 µg/mL | > 32 µg/mL | > 32 µg/mL | > 32 µg/mL | > 32 µg/mL | > 32 µg/mL | > 32 µg/mL | > 32 µg/mL | > 32 µg/mL | > 32 µg/mL | > 32 µg/mL | > 32 µg/mL | > 32 µg/mL | > 32 µg/mL | > 32 µg/mL | > 32 µg/mL | MIC [6, 24]: > 32 µg/mL
CN[C@H](CC(C)C)C(=O)N[C@H]1C(=O)N[C@@H](CC(N)=O)C(=O)N[C@H]2C(=N)NC3C(=O)N[C@H](C(=O)N[C@H](C(=O)O)c4cc(O)cc(O)c4-c4cc3ccc4O)[C@H](O)c3ccc(c(Cl)c3)Oc3cc2cc(c3OC2OC(CO)C(O)[C@H](O)[C@@H]2O[C@H]2CC(C)(N)[C@H](O)[C@H](C)O2)Oc2ccc(cc2Cl)[C@H]1O (stereo partly drawn) [Compound 3, [Ψ[C(═NH)NH]Tpg^4]vancomycin] | – | 0.5 µg/mL (≈ 0.345 µM) | 8 µg/mL (≈ 5.52 µM) | > 32 µg/mL | 0.5 µg/mL (≈ 0.345 µM) | – | – | – | – | 0.5 µg/mL (≈ 0.345 µM) | 4 µg/mL (≈ 2.76 µM) | > 32 µg/mL | 0.5 µg/mL (≈ 0.345 µM) | – | – | – | – | – | – | – | –
CN[C@H](CC(C)C)C(=O)N[C@H]1C(=O)N[C@@H](CC(N)=O)C(=O)N[C@H]2C(=S)NC3C(=O)N[C@H](C(=O)N[C@H](C(=O)O)c4cc(O)cc(O)c4-c4cc3ccc4O)[C@H](O)c3ccc(c(Cl)c3)Oc3cc2cc(c3OC2OC(CO)C(O)[C@H](O)[C@@H]2O[C@H]2CC(C)(NCc3ccc(-c4ccc(Cl)cc4)cc3)[C@H](O)[C@H](C)O2)Oc2ccc(cc2Cl)[C@H]1O (stereo partly drawn) [Compound 5, N-4-(4′-chlorobiphenyl)-methyl [Ψ[C(═S)NH]Tpg^4]vancomycin] | 2 to 4 µg/mL (≈ 1.2 to 2.4 µM) | 4 µg/mL (≈ 2.4 µM) | 4 µg/mL (≈ 2.4 µM) | 8 µg/mL (≈ 4.8 µM) | 4 µg/mL (≈ 2.4 µM) | 2 µg/mL (≈ 1.2 µM) | 2 µg/mL (≈ 1.2 µM) | 8 µg/mL (≈ 4.8 µM) | 2 µg/mL (≈ 1.2 µM) | 4 µg/mL (≈ 2.4 µM) | 4 µg/mL (≈ 2.4 µM) | 8 µg/mL (≈ 4.8 µM) | 4 µg/mL (≈ 2.4 µM) | 2 µg/mL (≈ 1.2 µM) | 2 µg/mL (≈ 1.2 µM) | 4 µg/mL (≈ 2.4 µM) | 4 µg/mL (≈ 2.4 µM) | 2 µg/mL (≈ 1.2 µM) | 4 µg/mL (≈ 2.4 µM) | 2 µg/mL (≈ 1.2 µM) | MIC [6, 24]: 2 µg/mL (≈ 1.2 µM)
CN[C@H](CC(C)C)C(=O)N[C@H]1C(=O)N[C@@H](CC(N)=O)C(=O)N[C@H]2CNC3C(=O)N[C@H](C(=O)N[C@H](C(=O)O)c4cc(O)cc(O)c4-c4cc3ccc4O)[C@H](O)c3ccc(c(Cl)c3)Oc3cc2cc(c3OC2OC(CO)C(O)[C@H](O)[C@@H]2O[C@H]2CC(C)(N)[C@H](O)[C@H](C)O2)Oc2ccc(cc2Cl)[C@H]1O (stereo partly drawn) [Compound 16, [Ψ[CH2NH]Tpg^4]vancomycin] | – | 31 µg/mL (≈ 21.6 µM) | 62 µg/mL (≈ 43.2 µM) | 125 µg/mL (≈ 87.1 µM) | 31 µg/mL (≈ 21.6 µM) | – | – | – | – | 31 µg/mL (≈ 21.6 µM) | 62 µg/mL (≈ 43.2 µM) | 125 µg/mL (≈ 87.1 µM) | 31 µg/mL (≈ 21.6 µM) | – | – | – | – | – | – | – | –
CN[C@H](CC(C)C)C(=O)N[C@H]1C(=O)N[C@@H](CC(N)=O)C(=O)N[C@H]2C(=O)NC3C(=O)N[C@H](C(=O)N[C@H](CO)c4cc(O)cc(O)c4-c4cc3ccc4O)[C@H](O)c3ccc(c(Cl)c3)Oc3cc2cc(c3OC2OC(CO)C(O)[C@H](O)[C@@H]2O[C@H]2CC(C)(N)[C@H](O)[C@H](C)O2)Oc2ccc(cc2Cl)[C@H]1O (stereo partly drawn) [Compound 23, hydroxymethylvancomycin, reference compound] | – | – | – | – | – | – | – | – | – | – | – | – | – | – | – | – | – | – | – | – | MIC, VanA E. faecalis ([2]; BM 4166): 250 µg/mL (≈ 174 µM); MIC, VanB E. faecalis ([3]; ATCC 51299): 8 µg/mL (≈ 5.57 µM); MIC, VanA E. faecium ([4]; ATCC BAA-2317): 250 µg/mL (≈ 174 µM); MIC, MRSA S. aureus ([5]; ATCC 43300): 0.5 µg/mL (≈ 0.348 µM); MIC, sensitive S. aureus [6]: 0.5 µg/mL (≈ 0.348 µM)
